{
  "source": "paper PMC10272112",
  "about": "(Nature Communications, 2023)",
  "key": {"[1]": {"biological_target": "HDAC1 (Homo sapiens, UniProt Q13547)", "sequence (Q13547 whole entry)": "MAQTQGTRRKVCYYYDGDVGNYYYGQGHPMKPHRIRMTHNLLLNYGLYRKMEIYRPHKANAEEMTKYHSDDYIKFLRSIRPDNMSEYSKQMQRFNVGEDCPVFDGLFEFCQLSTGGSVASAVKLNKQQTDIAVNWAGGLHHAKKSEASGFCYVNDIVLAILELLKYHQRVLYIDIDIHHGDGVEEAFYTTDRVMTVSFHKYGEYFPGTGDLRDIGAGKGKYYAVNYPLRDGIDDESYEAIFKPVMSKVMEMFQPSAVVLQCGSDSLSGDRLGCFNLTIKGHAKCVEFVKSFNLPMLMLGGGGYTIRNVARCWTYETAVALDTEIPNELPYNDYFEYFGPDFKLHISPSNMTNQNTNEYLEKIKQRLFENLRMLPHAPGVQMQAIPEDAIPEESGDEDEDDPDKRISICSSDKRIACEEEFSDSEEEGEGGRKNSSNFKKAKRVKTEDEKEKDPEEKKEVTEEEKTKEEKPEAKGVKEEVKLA", "test": "HDAC-Glo assay", "assay_type": "biochemical", "parameters": "purchased BPS Bioscience 50051", "procedure": "To validate the inhibition of HDACs by LA and LM and elaborate on the structure-activity relationship (SAR) of enantiomers as well as oxidized versus reduced forms of the molecules, we performed enzyme activity assays for recombinant HDAC1,2,3,6,8 as well as FRET-based binding assay for recombinant HDAC10.\nThe experiments were performed according to ref. [48]. […] Drug dosing was performed with a D300e Digital Dispenser (Tecan). HDACs (7 ng/mL for HDAC1, 25 ng/mL for HDAC2, 200 ng/mL for HDAC3/Ncor2 complex, 100 ng/mL for HDAC6, 200 ng/mL for HDAC8) and inhibitors were incubated together at room temperature (RT) for 30 min. After the addition of the HDAC-Glo™ I/II reagent, plates were shaken (800 rpm orbital shaker, 30 s), centrifuged (300 g, 1 min), and incubated at RT for 30 min. Luminescence was detected with a CLARIOstar (BMG Labtech) plate reader."}, "[2]": {"system": "DDX3X AcK118", "test": "DDX3X acetylation detection by western blot, CBP-HA transfected HEK293T", "assay_type": "cell-based", "procedure": "0.2 × 10^6 HEK293T (ATCC: CRL-3216) cells were transfected with pcDNA 3.1-HA CBP plasmids (1 μg/well for the 6-well plate) by FuGENE. After 2 days, cells were treated with ACY-738, lipoic acid, and lipoamide for 7 h, then were washed by ice-cold PBS and lysed in Triton lysis buffer (50 mM Tris, pH 8.0, 150 mM NaCl, 1 mM EDTA, 0.1% TritonX-100 and complete EDTA-free protease inhibitors (Roche)) for analysis. To detect protein acetylation, 0.2 μM Trichostatin A and 5 mM nicotinamide were added to PBS for washing, and 10 μM trichostatin A, 10 mM nicotinamide, and 50 mM sodium butyrate were added to Triton lysis buffer."}, "[3]": {"details": "0.5 M TCEP, log10 M -4.35788, 3 technical replicates"}, "[4]": {"details": "0.5 M TCEP, log10 M -4.88629, 3 technical replicates"}, "[5]": {"details": "0.5 M TCEP, log10 M -5.41477, 3 technical replicates"}, "[6]": {"details": "0.5 M TCEP, log10 M -5.94309, 3 technical replicates"}, "[7]": {"details": "0.5 M TCEP, log10 M -6.47756, 3 technical replicates"}, "[8]": {"details": "0.5 M TCEP, log10 M -6.87615, 3 technical replicates"}},
  "note": "Values joined by “and” are separate entries in the source; they are usually repeats but may differ in a detail not shown here. Identical values can stand only once.",
  "data": [
    {"smiles": "O=C(O)CCCCC1CCSS1", "note": "(racemic) [(R/S)-LA, (R/S)-lipoic acid]", "values": [
      {"measurement": "raw luminescence signal, HDAC1 inhibition", "setting": "[1]; 0.5 M TCEP, log10 M -3.82945, 3 technical replicates", "value": "25221 and 25211 and 25792"},
      {"measurement": "HDAC enzymatic activity (normalized luminescence)", "setting": "[1]; [3]", "value": "20.3513 and 20.4988 and 20.2352"},
      {"measurement": "raw luminescence signal, HDAC1 inhibition", "setting": "[1]; [3]", "value": "76389 and 76938 and 75957"},
      {"measurement": "HDAC enzymatic activity (normalized luminescence)", "setting": "[1]; [4]", "value": "44.8545 and 45.009 and 46.4019"},
      {"measurement": "raw luminescence signal, HDAC1 inhibition", "setting": "[1]; [4]", "value": "167582 and 168157 and 173341"},
      {"measurement": "HDAC enzymatic activity (normalized luminescence)", "setting": "[1]; [5]", "value": "75.7737 and 78.1543 and 78.9575"},
      {"measurement": "raw luminescence signal, HDAC1 inhibition", "setting": "[1]; [5]", "value": "282653 and 291513 and 294502"},
      {"measurement": "HDAC enzymatic activity (normalized luminescence)", "setting": "[1]; [6]", "value": "89.586 and 92.205 and 92.7553"},
      {"measurement": "raw luminescence signal, HDAC1 inhibition", "setting": "[1]; [6]", "value": "334058 and 343805 and 345853"},
      {"measurement": "HDAC enzymatic activity (normalized luminescence)", "setting": "[1]; [7]", "value": "95.6344 and 96.1277 and 99.0353"},
      {"measurement": "raw luminescence signal, HDAC1 inhibition", "setting": "[1]; [7]", "value": "356568 and 358404 and 369225"},
      {"measurement": "HDAC enzymatic activity (normalized luminescence)", "setting": "[1]; [8]", "value": "97.1294 and 100.284 and 101.314"},
      {"measurement": "raw luminescence signal, HDAC1 inhibition", "setting": "[1]; [8]", "value": "362132 and 373872 and 377707"},
      {"measurement": "HDAC enzymatic activity (normalized luminescence)", "setting": "[1]; no TCEP, log10 M -3.30103, 3 technical replicates", "value": "34.5758 and 34.0329 and 33.4507"},
      {"measurement": "HDAC enzymatic activity (normalized luminescence)", "setting": "[1]; no TCEP, log10 M -3.82945, 3 technical replicates", "value": "69.9436 and 70.5688 and 71.7678"},
      {"measurement": "HDAC enzymatic activity (normalized luminescence)", "setting": "[1]; no TCEP, log10 M -4.35788, 3 technical replicates", "value": "91.6791 and 90.2694 and 91.9437"},
      {"measurement": "HDAC enzymatic activity (normalized luminescence)", "setting": "[1]; no TCEP, log10 M -4.88629, 3 technical replicates", "value": "97.2441 and 96.7873 and 98.245"},
      {"measurement": "HDAC enzymatic activity (normalized luminescence)", "setting": "[1]; no TCEP, log10 M -5.41477, 3 technical replicates", "value": "102.844 and 103.267 and 105.666"},
      {"measurement": "HDAC enzymatic activity (normalized luminescence)", "setting": "[1]; no TCEP, log10 M -5.94309, 3 technical replicates", "value": "103.58 and 104.044 and 104.328"},
      {"measurement": "HDAC enzymatic activity (normalized luminescence)", "setting": "[1]; no TCEP, log10 M -6.47756, 3 technical replicates", "value": "103.305 and 103.257 and 103.904"},
      {"measurement": "HDAC enzymatic activity (normalized luminescence)", "setting": "[1]; no TCEP, log10 M -6.87615, 3 technical replicates", "value": "102.627 and 100.722 and 100.875"},
      {"measurement": "EC50", "setting": "[1]; read-out: log EC50 from dose-dependent HDAC inhibition curves (converted)", "value": 11.4, "unit": "µM"},
      {"measurement": "HDAC1 relative activity", "setting": "[1]; sheet S2b, log conc -3.30103", "value": "1.283 and 1.298 and 1.278"},
      {"measurement": "HDAC1 relative activity", "setting": "[1]; sheet S2b, log conc -3.82945", "value": "3.514 and 3.391 and 3.355"},
      {"measurement": "HDAC1 relative activity", "setting": "[1]; sheet S2b, log conc -4.35788", "value": "11.0684 and 11.0093 and 10.6578"},
      {"measurement": "HDAC1 relative activity", "setting": "[1]; sheet S2b, log conc -4.88629", "value": "24.6308 and 24.7045 and 25.3305"},
      {"measurement": "HDAC1 relative activity", "setting": "[1]; sheet S2b, log conc -5.41477", "value": "53.4112 and 53.3483 and 54.8189"},
      {"measurement": "HDAC1 relative activity", "setting": "[1]; sheet S2b, log conc -5.94309", "value": "78.0321 and 77.9262 and 78.089"},
      {"measurement": "HDAC1 relative activity", "setting": "[1]; sheet S2b, log conc -6.47756", "value": "94.813 and 93.3015 and 93.5028"},
      {"measurement": "HDAC1 relative activity", "setting": "[1]; sheet S2b, log conc -6.87615", "value": "93.4945 and 92.0736 and 92.8885"},
      {"measurement": "HDAC1 relative activity", "setting": "[1]; sheet S2d, log conc -3.30103", "value": "2.253 and 2.122 and 2.222"},
      {"measurement": "HDAC1 relative activity", "setting": "[1]; sheet S2d, log conc -3.82945", "value": "6.603 and 6.6 and 6.7561"},
      {"measurement": "HDAC1 relative activity", "setting": "[1]; sheet S2d, log conc -4.35788", "value": "20.3513 and 20.4988 and 20.2352"},
      {"measurement": "HDAC1 relative activity", "setting": "[1]; sheet S2d, log conc -4.88629", "value": "44.8545 and 45.009 and 46.4019"},
      {"measurement": "HDAC1 relative activity", "setting": "[1]; sheet S2d, log conc -5.41477", "value": "75.7737 and 78.1543 and 78.9575"},
      {"measurement": "HDAC1 relative activity", "setting": "[1]; sheet S2d, log conc -5.94309", "value": "89.586 and 92.205 and 92.7553"},
      {"measurement": "HDAC1 relative activity", "setting": "[1]; sheet S2d, log conc -6.47756", "value": "95.6344 and 96.1277 and 99.0353"},
      {"measurement": "HDAC1 relative activity", "setting": "[1]; sheet S2d, log conc -6.87615", "value": "97.1294 and 100.284 and 101.314"},
      {"measurement": "DDX3X AcK118 acetylation level relative to control", "setting": "[2]; 1 mM", "value": 2.4, "unit": "fold"},
      {"measurement": "DDX3X AcK118 acetylation level relative to control", "setting": "[2]; .5 (mM)", "value": 1.8, "unit": "fold"}
    ]}
  ]
}
